Experimental findings from US7786152B2, “Compound” (priority 2002, dated 2010) are described below.

The experiment has as its target T1, 11 β-HSD type 2 (Rattus norvegicus, UniProt P50233).
T1 construct: Both the kidneys and livers were homogenised on ice in PBS-sucrose buffer; tissue Harlan Olac (rats); host or cells: Wistar rat kidney homogenate supernatant
T1 sequence (P50233 1-400): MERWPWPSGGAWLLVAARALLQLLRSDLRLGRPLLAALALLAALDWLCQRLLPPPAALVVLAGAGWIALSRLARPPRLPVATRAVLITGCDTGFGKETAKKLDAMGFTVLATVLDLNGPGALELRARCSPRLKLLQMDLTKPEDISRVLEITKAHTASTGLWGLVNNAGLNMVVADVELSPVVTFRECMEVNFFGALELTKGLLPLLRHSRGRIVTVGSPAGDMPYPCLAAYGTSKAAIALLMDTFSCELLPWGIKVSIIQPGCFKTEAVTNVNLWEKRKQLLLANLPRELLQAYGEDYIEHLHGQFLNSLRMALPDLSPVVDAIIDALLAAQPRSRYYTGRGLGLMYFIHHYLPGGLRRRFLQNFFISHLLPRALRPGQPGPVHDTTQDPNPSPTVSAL
Briefly: 11 β-HSD type 2 inhibition, rat kidney homogenate, conversion F to E (radiometric TLC). The experiment is classed as biochemical. The conditions noted are these: read-out: % inhibition of 11β HSD2 @ 10 μM, typical sd ± 5%, means n=2. The method, then: Enzymes—Rat livers and rat kidneys were obtained from normal Wistar rats (Harlan Olac, Bicester, Oxon, UK). Both the kidneys and livers were homogenised on ice in PBS-sucrose buffer (1 g/10 ml) using an Ultra-Turrax. After the livers and kidneys were homogenised the homogenate was centrifuged for five minutes at 4000 rpm. The supernatant obtained was removed and stored in glass vials at −20° C. The amount of protein per μl of rat liver and kidney cytosol was determined using the Bradford method.
The same procedure was used for the 11 β-HSD type 2 assay, the conversion F to E, to determine the amount of rat kidney to be used and the incubation time. Except this time the substrate solution contained ^3H—F and unlabelled F and the recovery contained ^14C-E and unlabelled E and cortisone has a Rf value of 0.65 on the TLC-plate.
In these assays the influence of different inhibitors on the 11 β-HSD activity both in reductive (type 1) and oxidative (type 2) directions were assessed. In the reductive direction E is the substrate and F the product and visa versa in the case of oxidation. The method described here is for the oxidative direction.
The substrate solution contained about 50,000 cpm/ml ^3H—F in PBS-sucrose and 0.5 μM F. 1 ml of the substrate solution was added to each tube, the inhibitors were also added, at a 10 μM concentration, to each tube except to the “control” and “blank” tubes. 150 μL was added to all tubes except to the blanks, this was done to correct for the amount of ^3H—F spontaneously formed. The tubes were incubated for 60 minutes in a mechanically shaken water bath at 37° C. The amount of kidney liver homogenate and incubation time used resulted from the enzyme- and time-dependency assay. After incubation 50 μL of recovery was added to correct for the losses made in the next steps, containing 5000 cpm/50 μL of ^14C-E and 50 μg/50 μL of unlabelled E (to visualise the spot on the TLC-plate). The aqueous mixture was then extracted with 4 ml of ether (2×30 sec cycle, vortex mix). After freezing the aqueous phase, the ether (upper) layer was decanted into smaller tubes and evaporated at 45° C. until completely dry. The residue was then re-dissolved in 6 drops of ether and transferred to a TLC-plate. The TLC-plate was developed in chloroform:methanol (9:1 v/v) solvent system, the TLC-plate ran for about 90 minutes until the solvent front had moved about 18 cm. The position of the product E was visualised under UV-light and cut out from the TLC-plate and put into scintillation vials. Radioactivity was eluted over 5 minutes with 0.5 ml methanol. 0.5 ml of PBS-sucrose and 10 ml of Ecoscint were then added and vortex mixed before counting in the scintillation counter. Before counting the samples, two total activity vials were prepared. These contained 0.5 ml of the substrate solution, 50 μL of the recovery, 0.5 ml of methanol and 10 ml of Ecoscint. These two total activity vials were needed to determine the amount of ^14C-E and ^3H—F added in the beginning to make the calculations.
To look at the percentage of inhibition four different concentrations, 1, 5, 10 and 20 μM, were used. The method for both the rat liver, type 1 the reductive, and rat kidney, type 2 the oxidative, stay the same throughout the entire experiment.
In this experiment the amount of rat liver homogenate and rat kidney homogenate added to each tube and the incubation time was determined. […] After drawing the graphs the optimal amount of rat liver cytosol and rat kidney cytosol and both their incubation times were selected. One important rule when selecting both variables, to select an amount of rat liver and rat kidney and incubation time on a linear part of the graph. This is done to avoid fluctuations in enzyme activity. The amount of rat liver cytosol selected was 25 μL and 90 minutes of incubation time, the amount of rat kidney cytosol selected was 150 μL and 60 minutes of incubation time. […]

Regarding `Cc1nc2cc(NS(=O)(=O)c3ccc(Cl)cc3Cl)ccc2s1` [compound 412], the inhibition at 10 µM was 3%.

On to `Cc1nc2cc(NS(=O)(=O)c3cccc(Cl)c3C)ccc2s1` [compound 413], for which the inhibition at 10 µM came to 0.2%.

Regarding `CCCc1ccc(S(=O)(=O)Nc2ccc3sc(C)nc3c2)cc1` [compound 421], the inhibition at 10 µM was 0.9%.

Turning to `COc1ccc(S(=O)(=O)Nc2ccc3sc(C)nc3c2)cc1` [compound 424], the inhibition at 10 µM was 0.7%.

For the molecule `Cc1nc2cc(NS(=O)(=O)c3c(C)cccc3Cl)ccc2s1` [compound 425], the inhibition at 10 µM was 0%.

As for `Cc1nc2cc(N(C)S(=O)(=O)c3cccc(Cl)c3C)ccc2s1` [compound 469], the inhibition at 10 µM is 29%.

Take `CCN(c1ccc2sc(C)nc2c1)S(=O)(=O)c1cccc(Cl)c1C` [compound 470]: the inhibition at 10 µM was 30%.

Consider `Cc1nc2cc(NS(=O)(=O)c3ccc(Br)cc3)ccc2s1` [compound 519], for which the inhibition at 10 µM is 8%.

On to `Cc1nc2cc(NS(=O)(=O)c3ccc(-c4ccccc4)cc3)ccc2s1` [compound 521], for which the inhibition at 10 µM is 5%.

Turning to `Cc1nc2cc(NS(=O)(=O)c3c(Cl)cc(Cl)cc3Cl)ccc2s1` [compound 522], the inhibition at 10 µM turned out to be 6%.

Consider `Cc1nc2cc(NS(=O)(=O)c3ccc(Br)cc3C)ccc2s1` [compound 523], for which the inhibition at 10 µM stood at 8%.

On to `Cc1nc2cc(NS(=O)(=O)c3cccc4cccnc34)ccc2s1` [compound 552], for which the inhibition at 10 µM was 24%.

On to `Cc1nc2cc(NS(=O)(=O)c3cccc4ccccc34)ccc2s1` [compound 553], for which the inhibition at 10 µM is 18%.

For the molecule `Cc1nc2cc(NS(=O)(=O)c3cccc4c(N(C)C)cccc34)ccc2s1` [compound 554], the inhibition at 10 µM was found to be 43%.

Turning to `Cc1nc2cc(NS(=O)(=O)c3cc(Cl)ccc3Cl)ccc2s1` [compound 580], the inhibition at 10 µM came to 1.4%.

Take `Cc1nc2cc(NS(=O)(=O)c3ccc4c(c3)CN(C(=O)C(F)(F)F)CC4)ccc2s1` [compound 581]: the inhibition at 10 µM was 32%.

For the molecule `COc1ccc(Cl)cc1S(=O)(=O)Nc1ccc2sc(C)nc2c1` [compound 582], the inhibition at 10 µM amounted to 0.7%.

As to `Cc1nc2cc(NS(=O)(=O)c3ccccc3C#N)ccc2s1` [compound 583], the inhibition at 10 µM turned out to be 0.4%.

Take `COc1cc(C)ccc1S(=O)(=O)Nc1ccc2sc(C)nc2c1` [compound 584]: the inhibition at 10 µM turned out to be 10%.

`Cc1nc2cc(NS(=O)(=O)c3ccc(Oc4ccccc4)cc3)ccc2s1` [compound 585]: the inhibition at 10 µM came out at 1.6%.

For the molecule `CC(=O)c1ccccc1S(=O)(=O)Nc1ccc2sc(C)nc2c1` [compound 701], the inhibition at 10 µM worked out at 36%.

On to `Cc1nc2cc(NS(=O)(=O)c3c(C(C)C)cc(C(C)C)cc3C(C)C)ccc2s1` [compound 703], for which the inhibition at 10 µM was 4%.

Regarding `Cc1nc2cc(NS(=O)(=O)c3ccc(C(C)C)cc3)ccc2s1` [compound 704], the inhibition at 10 µM is 4%.

Regarding `COC(=O)c1ccccc1S(=O)(=O)Nc1ccc2sc(C)nc2c1` [compound 705], the inhibition at 10 µM amounted to 6%.

Take `COc1c(C)c(C)c(S(=O)(=O)Nc2ccc3sc(C)nc3c2)c(C)c1C` [compound 708]: the inhibition at 10 µM was found to be 11%.

Turning to `Cc1nc2cc(NS(=O)(=O)c3ccc(C(C)(C)C)cc3)ccc2s1` [compound 709], the inhibition at 10 µM was 13%.

On to `Cc1nc2cc(NS(=O)(=O)c3c(C)c(C)c(C)c(C)c3C)ccc2s1` [compound 710], for which the inhibition at 10 µM is 10%.

For the molecule `CCSc1nc2ccc(NS(=O)(=O)c3cccc(Cl)c3C)cc2s1` [compound 751], the inhibition at 10 µM was 5%.

By inhibition is commonly meant the relative decrease from the control value, in per cent.
